Reference: patent US11634419B2, “Dimethyl amino azetidine amides as JAK inhibitors” (THERAVANCE BIOPHARMA R&D IP, LLC, priority 2018, dated 2023)

Tests used:
[1] = system: IFNγ secretion in mixed lymphocyte reaction; experiment: Inhibition of IFNγ secretion in a mixed lymphocyte reaction assay; format: cell-based, human; details: summary statement
Method: The mixed lymphocyte reaction assay is an in-vitro assay that mimics transplant rejection. T cells from one donor are cultured with allogeneic dendritic cells from another donor. This reaction induces a cellular immune response such as IFNγ secretion. CD14+ monocytes were isolated from human whole blood (Stanford blood center) of donor A using a ficoll gradient and magnetic seperation (CD14 microbeads, Miltenyi). […] Cells were harvested, washed with media, re-suspended to 400,000 cells/ml in media and plated at 10,000 cells/well/25 μl. CD4+ T cells were freshly isolated from human whole blood (Stanford blood center) of donor B using a ficoll gradient and magnetic separation (CD4+ T cell isolation kit, Miltenyi). T cells were re-suspended to 4,000,000 cells/ml in RPMI (Life Technologies) supplemented with 10% Fetal Bovine Serum (FBS, Life Technologies), 2 mM Glutamax (Life Technologies), 25 mM HEPES (Life Technologies) and 1× Pen/Strep (Life Technologies). CD4+ T cells were mixed with the dendritic cells at 100,000 cells/well/25p. […] On day 5, supernatants were collected and measured for interferon gamma (INFγ) using enzyme linked immunosorbent assay (ELISA). Percent inhibition was determined by compound inhibitory potency against IFNγ secretion compared to vehicle treated cells. […]

[2] = Pharmacokinetics in plasma and lung in mouse; format: in vivo; details: single oral aspiration, 0.2 mg/mL, 50 μL
Method: Plasma and lung concentrations of test compounds and ratios thereof were determined in the following manner. BALB/c mice from Charles River Laboratories were used in the assay. Test compounds were individually formulated in 20% propylene glycol in pH 4 citrate buffer at a concentration of 0.2 mg/mL and 50 μL of the dosing solution was introduced into the trachea of a mouse by oral aspiration. At various time points (typically 0.167, 2, 6, 24 hr) post dosing, blood samples were removed via cardiac puncture and intact lungs were excised from the mice.

Lung S9 metabolism = format: in vitro ADME, human; details: for Compound Remaining at 60 min (%): human lung S9, 1 μM compound, 1 mg/mL S9 protein, NADPH and PAPS; for Sulfate Appearance: qualitative, O-sulfate metabolite peak in human lung S9
Method: The time 0, 15, 30, and 60 minute samples were analyzed for parent compound by high resolution LC-MS/MS. Lung S9 fractions from human (lot 1410245) were purchased from XenoTech LLC (Lenexa, Kans.). NADPH (Sigma Aldrich, N1630) and 3-phosphoadenosine 5-phosphosulfate (PAPS) (Sigma Aldrich, A1651) were purchased from Sigma Aldrich (St. Louis, Mo.). Acetonitrile and water were obtained from VWR (Radnor, Pa.) and were of HPLC grade or better. Raloxifene and formic acid was purchased from Sigma Aldrich (St. Louis, Mo.). Lung S9 incubations were performed in a water bath at 37° C. in a 96-well polypropylene plate. […] Louis, Mo.), 3 mM magnesium chloride (Sigma Aldrich, M1028) and in the presence of 100 μM PAPS (Sigma-Aldrich, St. […] Incubation volumes consisted of 400 μL and time points were taken at 0, 15, 30, and 60 minutes by the removal of a 70 μL aliquot and dilution into 140 μL acetonitrile (0% formic acid). All samples were centrifuged at 2250 g for 10 minutes at 5° C. Supernatant (50 μL) was taken from the centrifuged samples and diluted into 100 μL HPLC water containing internal standard. The samples were run on a Dionex Ultimate 3000 Auto sampler and analyzed using a Thermo Q-Exactive High Resolution Mass Spectrometer (Thermo, Waltham, Mass.) in Full Scan mode in conjunction with an Atlantis T3 column 3 μM−2.1×50 mm (Waters Inc., 186003717). Mobile Phase A consisted of Water+0.2% formic acid and Mobile Phase B consisted of acetonitrile+0.2% formic acid. Peak integration was accomplished using Gubbs GMSU software (Gubbs Inc., Alpharetta, Ga.). For each sample, peak area ratios were calculated by dividing the analyte peak area by the internal standard peak area. For each incubation, the peak area ratios of the analytes in each t0 was set to 100%, and the peak areas ratios from the 60 minute samples were converted to percentages remaining relative to the corresponding t0. Determination of sulfate metabolite formation was made qualitatively by observation of early-eluting peak in the parent ion channel which, based on historical internal data, corresponded to the O-sulfate metabolite of each parent compound.

human JAK1 = human JAK1 (Homo sapiens (Human), UniProt P23458); experiment: Co-crystal structure with JAK1; details: resolution 2.28 Å
Excerpt: A co-crystal structure was obtained of compound C-1 bound to human JAK1 at a resolution of 2.28 Å. […] Seven specific hydrogen bonding interactions were identified based upon a distance of 3.5 Å or less between donor and acceptor atoms. Of particular note, a hydrogen bonding interaction was identified between the carbonyl of the exocyclic amide of the compound of C-1 and the sidechain of Arg879 of JAK1. A similar interaction can be expected for the compounds of the invention.

human JAK1, sequence (P23458 whole entry): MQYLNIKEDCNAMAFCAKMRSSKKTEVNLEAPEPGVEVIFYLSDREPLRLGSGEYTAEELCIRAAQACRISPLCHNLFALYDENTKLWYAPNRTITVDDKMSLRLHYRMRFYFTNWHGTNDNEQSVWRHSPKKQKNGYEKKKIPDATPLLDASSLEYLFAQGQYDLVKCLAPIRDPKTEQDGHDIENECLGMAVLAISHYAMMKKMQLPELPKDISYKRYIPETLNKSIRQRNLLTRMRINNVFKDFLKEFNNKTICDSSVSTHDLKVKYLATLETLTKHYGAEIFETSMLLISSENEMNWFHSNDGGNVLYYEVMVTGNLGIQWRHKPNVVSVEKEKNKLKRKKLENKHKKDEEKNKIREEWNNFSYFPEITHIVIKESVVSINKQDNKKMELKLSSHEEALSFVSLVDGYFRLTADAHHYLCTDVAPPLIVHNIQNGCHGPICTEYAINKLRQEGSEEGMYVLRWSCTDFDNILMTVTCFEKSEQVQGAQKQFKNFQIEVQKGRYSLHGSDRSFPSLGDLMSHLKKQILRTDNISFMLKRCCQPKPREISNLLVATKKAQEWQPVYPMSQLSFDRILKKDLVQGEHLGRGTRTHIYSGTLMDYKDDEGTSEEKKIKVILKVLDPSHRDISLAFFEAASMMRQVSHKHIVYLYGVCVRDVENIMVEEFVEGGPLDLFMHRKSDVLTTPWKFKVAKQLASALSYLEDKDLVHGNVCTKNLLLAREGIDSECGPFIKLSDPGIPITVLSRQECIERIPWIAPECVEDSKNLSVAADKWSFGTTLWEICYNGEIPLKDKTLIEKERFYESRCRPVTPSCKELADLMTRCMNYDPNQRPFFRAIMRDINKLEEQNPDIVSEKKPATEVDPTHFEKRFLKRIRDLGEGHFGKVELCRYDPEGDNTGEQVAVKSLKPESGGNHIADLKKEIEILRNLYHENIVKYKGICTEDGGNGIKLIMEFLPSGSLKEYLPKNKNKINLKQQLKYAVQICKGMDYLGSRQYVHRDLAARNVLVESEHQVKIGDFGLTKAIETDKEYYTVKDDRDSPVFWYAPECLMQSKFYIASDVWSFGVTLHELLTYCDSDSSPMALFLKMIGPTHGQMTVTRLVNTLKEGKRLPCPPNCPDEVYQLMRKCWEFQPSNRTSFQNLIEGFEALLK

| SMILES | Plasma AUC(0-24) [2] [ng·h/mL] | Compound Remaining at 60 min (%) (Lung S9 metabolism) | Sulfate Appearance (Lung S9 metabolism) | binding site observed in co-crystal structure (human JAK1) | inhibition of IFNγ secretion in mixed lymphocyte reaction (in words) [1] |
| --- | --- | --- | --- | --- | --- |
| CCc1cc(O)ccc1-c1ccc2c(-c3nc4c([nH]3)CN(C(C)C)[C@H](C(=O)N3CC(N(C)C)C3)C4)n[nH]c2c1 [Compound 1, (S)-(3-(dimethylamino)azetidin-1-yl)(2-(6-(2-ethyl-4-hydroxyphenyl)-1H-indazol-3-yl)-5-isopropyl-4,5,6,7-tetrahydro-3H-imidazo[4,5-c]pyridin-6-yl)methanone] | 943 | 81 | Yes | – | effectively inhibit IFNγ secretion |
| CCc1cc(O)ccc1-c1ccc2c(-c3nc4c([nH]3)CN(CC)[C@H](C(=O)N3CC(C)(N(C)C)C3)C4)n[nH]c2c1 [Compound 3, (S)-(3-(dimethylamino)-3-methylazetidin-1-yl)(5-ethyl-2-(6-(2-ethyl-4-hydroxyphenyl)-1H-indazol-3-yl)-4,5,6,7-tetrahydro-3H-imidazo[4,5-c]pyridin-6-yl)methanone] | – | 97 | Yes | – | – |
| CCc1cc(O)ccc1-c1ccc2c(-c3nc4c([nH]3)CN(C(C)C)[C@H](C(=O)N3CC(C)(N(C)C)C3)C4)n[nH]c2c1 [Compound 4, (S)-(3-(dimethylamino)-3-methylazetidin-1-yl)(2-(6-(2-ethyl-4-hydroxyphenyl)-1H-indazol-3-yl)-5-isopropyl-4,5,6,7-tetrahydro-3H-imidazo[4,5-c]pyridin-6-yl)methanone] | – | 100 | Yes | – | – |
| CCCN1Cc2[nH]c(-c3n[nH]c4cc(-c5ccc(O)cc5CC)ccc34)nc2C[C@H]1C(=O)N1CC(N(C)C)C1 [Compound 5, (S)-(3-(dimethylamino)azetidin-1-yl)(2-(6-(2-ethyl-4-hydroxyphenyl)-1H-indazol-3-yl)-5-propyl-4,5,6,7-tetrahydro-3H-imidazo[4,5-c]pyridin-6-yl)methanone] | – | 96 | Yes | – | – |
| CCc1cc(O)ccc1-c1ccc2c(-c3nc4c([nH]3)CN(CC)[C@H](C(=O)N3CC(N(C)C)C3)C4)n[nH]c2c1 [Compound 2, (S)-(3-(dimethylamino)azetidin-1-yl)(5-ethyl-2-(6-(2-ethyl-4-hydroxyphenyl)-1H-indazol-3-yl)-4,5,6,7-tetrahydro-3H-imidazo[4,5-c]pyridin-6-yl)methanone] | – | 98 | Yes | – | – |
| CCCN1Cc2[nH]c(-c3n[nH]c4cc(-c5ccc(O)cc5CC)ccc34)nc2C[C@H]1C(=O)N1CC(C)(N(C)C)C1 [Compound 6, (S)-(3-(dimethylamino)-3-methylazetidin-1-yl)(2-(6-(2-ethyl-4-hydroxyphenyl)-1H-indazol-3-yl)-5-propyl-4,5,6,7-tetrahydro-3H-imidazo[4,5-c]pyridin-6-yl)methanone] | – | 90 | Yes | – | – |

The next lines start with results.

| Plasma AUC(0-24) [2] [ng·h/mL] | Compound Remaining at 60 min (%) (Lung S9 metabolism) | Sulfate Appearance (Lung S9 metabolism) | binding site observed in co-crystal structure (human JAK1) | SMILES | inhibition of IFNγ secretion in mixed lymphocyte reaction (in words) [1] |
| --- | --- | --- | --- | --- | --- |
| – | 5 | Yes | – | CCCN1Cc2[nH]c(-c3n[nH]c4cc(-c5cc(F)c(O)cc5CC)ccc34)nc2C[C@H]1C(=O)N1CC(N(C)C)C1 [Compound C-5, (S)-(3-(dimethylamino)azetidin-1-yl)(2-(6-(2-ethyl-5-fluoro-4-hydroxyphenyl)-1H-indazol-3-yl)-5-propyl-4,5,6,7-tetrahydro-3H-imidazo[4,5-c]pyridin-6-yl)methanone, reference compound] | – |
| – | 6 | Yes | – | CCc1cc(O)c(F)cc1-c1ccc2c(-c3nc4c([nH]3)CN(CC)[C@H](C(=O)N3CC(N(C)C)C3)C4)n[nH]c2c1 [Compound C-2, (S)-(3-(dimethylamino)azetidin-1-yl)(5-ethyl-2-(6-(2-ethyl-5-fluoro-4-hydroxyphenyl)-1H-indazol-3-yl)-4,5,6,7-tetrahydro-3H-imidazo[4,5-c]pyridin-6-yl)methanone, reference compound] | – |
| – | 6 | Yes | bind in the ATP binding site | CCc1cc(O)c(F)cc1-c1ccc2c(-c3nc4c([nH]3)CN(C(C)C)[C@H](C(=O)N3CC(N(C)C)C3)C4)n[nH]c2c1 [Compound C-1, (S)-(3-(dimethylamino)azetidin-1-yl)(2-(6-(2-ethyl-5-fluoro-4-hydroxyphenyl)-1H-indazol-3-yl)-5-isopropyl-4,5,6,7-tetrahydro-3H-imidazo[4,5-c]pyridin-6-yl)methanone, reference compound] | – |
| – | 4 | Yes | – | CCCN1Cc2[nH]c(-c3n[nH]c4cc(-c5cc(F)c(O)cc5CC)ccc34)nc2C[C@H]1C(=O)N1CC(C)(N(C)C)C1 [Compound C-6, (S)-(3-(dimethylamino)-3-methylazetidin-1-yl)(2-(6-(2-ethyl-5-fluoro-4-hydroxyphenyl)-1H-indazol-3-yl)-5-propyl-4,5,6,7-tetrahydro-3H-imidazo[4,5-c]pyridin-6-yl)methanone, reference compound] | – |
| – | 4 | Yes | – | CCc1cc(O)c(F)cc1-c1ccc2c(-c3nc4c([nH]3)CN(C(C)C)[C@H](C(=O)N3CC(C)(N(C)C)C3)C4)n[nH]c2c1 [Compound C-4, (S)-(3-(dimethylamino)-3-methylazetidin-1-yl)(2-(6-(2-ethyl-5-fluoro-4-hydroxyphenyl)-1H-indazol-3-yl)-5-isopropyl-4,5,6,7-tetrahydro-3H-imidazo[4,5-c]pyridin-6-yl)methanone, reference compound] | – |
| – | 5 | Yes | – | CCc1cc(O)c(F)cc1-c1ccc2c(-c3nc4c([nH]3)CN(CC)[C@H](C(=O)N3CC(C)(N(C)C)C3)C4)n[nH]c2c1 [Compound C-3, (S)-(3-(dimethylamino)-3-methylazetidin-1-yl)(5-ethyl-2-(6-(2-ethyl-5-fluoro-4-hydroxyphenyl)-1H-indazol-3-yl)-4,5,6,7-tetrahydro-3H-imidazo[4,5-c]pyridin-6-yl)methanone, reference compound] | – |
